Each block holds one molecule with its values, some of them ahead of it.
Experiments:
[1] = target: T1, Human ADA (Homo sapiens, UniProt P00813); test: Adenosine deaminase (ADA) enzyme assay [2], IC50 of Vmax inhibition; assay type: biochemical
T1 construct: made in house; host or cells: ADA-deficient bacterial strain
T1 sequence (P00813 1-363): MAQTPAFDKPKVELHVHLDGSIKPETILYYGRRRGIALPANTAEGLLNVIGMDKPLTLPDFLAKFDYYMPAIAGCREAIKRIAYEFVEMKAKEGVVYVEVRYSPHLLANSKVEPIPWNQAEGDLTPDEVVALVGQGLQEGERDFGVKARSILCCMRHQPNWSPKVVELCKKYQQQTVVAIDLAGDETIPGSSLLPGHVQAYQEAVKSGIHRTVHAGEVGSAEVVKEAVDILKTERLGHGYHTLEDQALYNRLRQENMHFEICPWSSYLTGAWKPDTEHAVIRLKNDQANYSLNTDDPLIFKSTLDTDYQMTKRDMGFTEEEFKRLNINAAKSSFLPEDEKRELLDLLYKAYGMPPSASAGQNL
Procedure: Human ADA was expressed and purified from ADA-deficient bacterial strain. Reaction mixture of a total volume of 200 μl contained 0.16 μg/ml of ADA, 0.1 mM of adenosine and test compound in 10 mM phosphate buffer saline (pH 7.4). The reaction was started by addition of ADA to a mixture of adenosine and test compound.

[2] = target: T1, Human ADA; test: Adenosine deaminase (ADA) enzyme assay [1], Ki by Dixon plot; assay type: biochemical; conditions: 25 mU/ml ADA, varying concentrations of adenosine, 10 mM phosphate buffer saline pH 7.4, room temperature, A265 for 5 minutes
Procedure: The reaction velocity (V) is measured by a change in absorbance at 265 nm (A265) resulting from the deamination of adenosine. Human ADA was expressed and purified from ADA-deficient bacterial strain. Reaction mixtures in a total volume of 200 μl contained 25 mU/ml of ADA and varying concentrations of adenosine and test compounds in 10 mM phosphate buffer saline (pH 7.4). The reaction was started by addition of ADA to a mixture of adenosine and test compound. The reaction was followed at room temperature by recording decrease in A265 for 5 minutes in SPECTRAmax 250 (Molecular Devices, USA) to automatically calculate Vmax. The inhibition constant (Ki) values of test compounds were determined by Dixon plot.

IC50 [1]: 27 nM
SMILES: C[C@H](O)[C@@H](CCc1cccc2ccccc12)n1cncn1 [Compound A, 1-[(2S,3R)-2-Hydroxy-5-(1-naphthyl)-3-pentyl]-1,2,4-triazole]

melting point: 127 to 130 °C
SMILES: NC(=O)c1cn([C@@H](CO)CCn2ccc3ccccc32)cn1 [Example 2, 1-[(R)-1-hydroxy-4-(1-indolyl)-2-butyl]imidazole-4-carboxamide]

Ki [2]: 16 nM
SMILES: NC(=O)c1cn([C@@H](CO)CCn2ccc3ccc(NC(=O)CCCc4ccccc4)cc32)cn1 [Example 6-(2), 1-[(R)-1-Hydroxy-4-(6-(4-phenylbutyrylamino)indol-1-yl)-2-butyl]imidazole-4-carboxamide]
